Test results published in the supplement of paper PMC10307832.

Experiments:
Experiment in all cases: relative viability (nuclei count vs DMSO), 5 days (fraction); higher = more cells survive
Linsitinib + Dasatinib = compound: C[C@]1(O)C[C@@H](c2nc(-c3ccc4ccc(-c5ccccc5)nc4c3)c3c(N)nccn32)C1 [Linsitinib] + Cc1nc(Nc2ncc(C(=O)Nc3c(C)cccc3Cl)s2)cc(N2CCN(CCO)CC2)n1 [Dasatinib] (partner 0.075 µM)
Summary of the method: (§1)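 Cells from lung cancer lines were seeded into 1536-well plates and, one day later, dosed by pin tool. Treatments were either a single drug or a fixed dose of an anchor drug with five library-drug doses (not always all listed) in √10 steps. After 5 days, nuclei were stained in a one-step fixation (final 0.05% Triton X-100, 1% formaldehyde, 1 ug/ml Hoechst) and counted on 4× images, and relative viability is the treated-to-vehicle nuclei ratio, as the median of duplicate plates.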

Ispinesib + Alpelisib = compound: Cc1ccc(C(=O)N(CCCN)[C@@H](c2nc3cc(Cl)ccc3c(=O)n2Cc2ccccc2)C(C)C)cc1 [Ispinesib] + Cc1nc(NC(=O)N2CCC[C@H]2C(N)=O)sc1-c1ccnc(C(C)(C)C(F)(F)F)c1 [Alpelisib] (partner 2 µM)
Summary of the method: as §1

Linsitinib + Tozasertib = compound: C[C@]1(O)C[C@@H](c2nc(-c3ccc4ccc(-c5ccccc5)nc4c3)c3c(N)nccn32)C1 [Linsitinib] + Cc1cc(Nc2cc(N3CCN(C)CC3)nc(Sc3ccc(NC(=O)C4CC4)cc3)n2)n[nH]1 [Tozasertib] (partner 0.1 µM)
Summary of the method: as §1

Ispinesib + Luminespib = compound: Cc1ccc(C(=O)N(CCCN)[C@@H](c2nc3cc(Cl)ccc3c(=O)n2Cc2ccccc2)C(C)C)cc1 [Ispinesib] + CCNC(=O)c1noc(-c2cc(C(C)C)c(O)cc2O)c1-c1ccc(CN2CCOCC2)cc1 [Luminespib] (partner 0.01 µM)
Summary of the method: as §1

| Cell Line | relative viability (Linsitinib + Dasatinib; first compound 0.01 µM) | relative viability (Linsitinib + Dasatinib; first compound 0.03162 µM) | relative viability (Linsitinib + Dasatinib; first compound 0.1 µM) | relative viability (Linsitinib + Dasatinib; first compound 0.3162 µM) | relative viability (Linsitinib + Dasatinib; first compound 1 µM) | relative viability (Ispinesib + Alpelisib; first compound 0.001 µM) | relative viability (Ispinesib + Alpelisib; first compound 0.003162 µM) | relative viability (Ispinesib + Alpelisib; first compound 0.01 µM) | relative viability (Ispinesib + Alpelisib; first compound 0.03162 µM) | relative viability (Ispinesib + Alpelisib; first compound 0.1 µM) | relative viability (Linsitinib + Tozasertib; first compound 0.01 µM) | relative viability (Linsitinib + Tozasertib; first compound 0.03162 µM) | relative viability (Linsitinib + Tozasertib; first compound 0.1 µM) | relative viability (Linsitinib + Tozasertib; first compound 0.3162 µM) | relative viability (Linsitinib + Tozasertib; first compound 1 µM) | relative viability (Ispinesib + Luminespib; first compound 0.001 µM) | relative viability (Ispinesib + Luminespib; first compound 0.003162 µM) | relative viability (Ispinesib + Luminespib; first compound 0.01 µM) | relative viability (Ispinesib + Luminespib; first compound 0.03162 µM) | relative viability (Ispinesib + Luminespib; first compound 0.1 µM) |
| --- | --- | --- | --- | --- | --- | --- | --- | --- | --- | --- | --- | --- | --- | --- | --- | --- | --- | --- | --- | --- |
| NCI-H661 | 0.899 | 0.815 | 0.946 | 0.722 | 0.768 | 0.593 | 0.972 | 0.745 | 0.369 | 0.508 | 0.361 | 0.383 | 0.335 | 0.308 | 0.368 | 0.926 | 0.913 | 0.921 | 0.586 | 0.224 |
| CAL-12T | 0.362 | 0.359 | 0.485 | 0.178 | 0.273 | 1.05 | 1.29 | 1.38 | 0.624 | 0.142 | 0.267 | 0.287 | 0.296 | 0.255 | 0.225 | 0.318 | 0.394 | 0.688 | 0.379 | 0.236 |
| HARA | 0.278 | 0.213 | 0.294 | – | 0.204 | 0.865 | 0.806 | 0.914 | 0.674 | 0.371 | 0.135 | 0.106 | 0.202 | – | 0.138 | 1.12 | 0.617 | 0.788 | 0.64 | 0.233 |
| NCI-H596 | 0.643 | 0.673 | 0.625 | 0.647 | 0.437 | 0.563 | 0.427 | 0.583 | 0.458 | 0.394 | 0.889 | 0.948 | 0.822 | 0.724 | 0.812 | 1.01 | 0.954 | 1.07 | 1.06 | 0.609 |
| LU99A | 0.553 | 0.52 | 0.539 | 0.334 | 0.289 | 0.527 | 0.572 | 0.66 | 0.318 | 0.208 | 0.284 | 0.27 | 0.281 | 0.264 | 0.234 | 0.242 | 0.333 | 0.247 | 0.199 | 0.218 |
| LC-2-ad | 0.481 | 0.31 | 0.385 | 0.271 | 0.236 | 0.932 | 0.94 | 1.06 | 0.697 | 0.268 | 0.48 | 0.523 | 0.387 | 0.285 | 0.41 | 1.08 | 1.3 | 1.05 | 0.915 | 0.396 |
| NCI-H1650 | 0.291 | 0.293 | 0.355 | 0.258 | 0.241 | – | – | – | – | – | 0.412 | 0.549 | 0.412 | 0.323 | 0.288 | 0.182 | 0.185 | 0.217 | 0.181 | 0.198 |
| NCI-H1915 | 0.306 | 0.351 | 0.299 | 0.331 | 0.234 | 1.09 | 1.16 | 1.03 | 0.958 | 0.979 | 0.44 | 0.477 | 0.437 | 0.378 | 0.353 | 0.979 | 0.987 | 1.13 | 0.706 | 0.385 |
| ABC-1 | 0.574 | 0.469 | 0.504 | 0.541 | 0.448 | 1.36 | 0.881 | 1.25 | 0.343 | 0.315 | 0.18 | 0.164 | 0.145 | 0.153 | 0.171 | – | 0.598 | 0.613 | 0.369 | 0.469 |
| HCC-44 | – | – | – | – | – | 0.805 | 0.878 | 1.11 | 0.822 | 0.234 | 1.1 | 0.889 | 0.849 | 0.557 | 0.573 | 1.25 | 1.07 | 1.02 | 1.1 | 0.555 |
| HCC-78 | 0.365 | 0.437 | 0.238 | 0.554 | 0.265 | 0.358 | 0.393 | 0.38 | – | 0.268 | 0.643 | 0.482 | 0.418 | 0.378 | 0.319 | – | – | – | – | – |
| LXF-289 | 0.244 | 0.203 | 0.182 | – | 0.191 | 1.06 | 1.05 | 1.16 | 0.993 | 0.733 | 0.184 | 0.193 | 0.196 | – | 0.148 | 0.622 | 0.794 | 0.743 | 0.556 | 0.617 |
| 201T | 0.604 | 0.581 | 0.531 | 0.725 | 0.439 | 1.07 | 1.01 | 1.06 | 0.996 | 0.955 | 0.951 | 0.929 | 0.988 | 0.977 | 0.938 | 1.07 | 1.05 | 1.15 | 0.988 | 0.937 |
| NCI-H1734 | 0.473 | 0.488 | 0.45 | 0.504 | 0.315 | 0.659 | 0.743 | 0.763 | 0.721 | 0.517 | 0.242 | 0.244 | 0.274 | 0.242 | 0.267 | 0.179 | 0.0914 | 0.177 | 0.192 | 0.157 |
| NCI-H1623 | 0.561 | 0.527 | 0.45 | – | 0.415 | – | – | – | – | – | 0.363 | 0.445 | 0.412 | – | 0.364 | 0.638 | 0.487 | 0.578 | 0.526 | 0.455 |
| NCI-H2126 | 0.596 | 0.649 | 0.527 | 0.273 | 0.27 | 0.765 | 0.811 | 0.901 | 0.742 | 0.813 | 0.768 | 0.828 | 0.767 | 0.727 | 0.646 | 0.927 | 1.02 | 1.03 | 0.844 | 0.428 |
| LOU-NH91 | 0.561 | 0.612 | 0.545 | 0.645 | 0.456 | 0.724 | 0.705 | 0.751 | 0.607 | 0.553 | 0.705 | 0.642 | 0.708 | 0.531 | 0.594 | 0.332 | 0.311 | 0.394 | 0.25 | 0.297 |
